Structures are written as SMILES.

By Ki is commonly meant a dissociation constant, usually derived from enzyme kinetics or from competition with a known ligand. The inhibition is the relative decrease from the control value, in per cent. High values mean a response far below the control, low ones a response near the control.

HGFR (c-Met), sequence (P08581 974-1390): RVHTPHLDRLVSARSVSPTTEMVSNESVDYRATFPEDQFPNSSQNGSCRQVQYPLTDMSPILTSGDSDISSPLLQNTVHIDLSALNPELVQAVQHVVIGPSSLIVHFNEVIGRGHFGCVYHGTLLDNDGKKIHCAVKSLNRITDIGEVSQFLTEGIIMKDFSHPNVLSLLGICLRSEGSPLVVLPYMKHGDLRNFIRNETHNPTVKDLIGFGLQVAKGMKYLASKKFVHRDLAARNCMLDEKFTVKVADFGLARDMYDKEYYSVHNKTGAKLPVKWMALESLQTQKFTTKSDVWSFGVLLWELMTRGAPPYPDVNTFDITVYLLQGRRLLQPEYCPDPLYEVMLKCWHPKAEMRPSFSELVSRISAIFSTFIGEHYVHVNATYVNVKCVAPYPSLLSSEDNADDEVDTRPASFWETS

The first assay deals with HGFR (c-Met) (Homo sapiens, UniProt P08581). In words: HGFR Continuous-Coupled Spectrophotometric Assay. To be noted: HGFR enzyme 50 nM, Met-2 peptide substrate, 37° C. In kind it is biochemical. In a few lines:
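Human HGFR (50 nM final) phosphorylates the Met-2 activation-loop peptide, with ADP formation coupled through PK/LDH to NADH consumption, read as the A340 decrease over 10 min at 37 °C. Buffer was HEPES pH 7.5 with MgCl2, DTT, PEP and ATP.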
`CC(Oc1cc(-c2ccc(NCCN3CCCC3)nc2)cnc1N)c1c(Cl)ccc(F)c1Cl` (stereo not drawn) [Example 75, 5-[1-(2,6-Dichloro-3-fluoro-phenyl)-ethoxy]-N6′-(2-pyrrolidin-1-yl-ethyl)-[3,3′]bipyridinyl-6,6′-diamine] showed an inhibition constant Ki of 28 nM.
In turn, `CC(Oc1cc(-c2ccc(NC3CCNCC3)nc2)cnc1N)c1c(Cl)ccc(F)c1Cl` (stereo not drawn) [Example 76, 5-[1-(2,6-Dichloro-3-fluoro-phenyl)-ethoxy]-N6′-piperidin-4-yl-[3,3′]bipyridinyl-6,6′-diamine] yielded a Ki of 22 nM.
In turn, `CC(Oc1cc(-c2cn(C3CCNCC3)cn2)cnc1N)c1c(Cl)ccc(F)c1Cl` (stereo not drawn) [Example 77, 3-[1-(2,6-Dichloro-3-fluoro-phenyl)-ethoxy]-5-(1-piperidin-4-yl-1H-imidazol-4-yl)-pyridin-2-ylamine] returned a Ki of 38 nM. Compared with the last compound, the Ki is about 1.7-fold higher.
As for `CCOc1ccc(Cl)c(C(C)Oc2cc(-c3ccc(C(=O)N4CCNCC4)cc3)cnc2N)c1Cl` (stereo not drawn) [Example 78, (4-{6-Amino-5-[1-(2,6-dichloro-3-ethoxy-phenyl)-ethoxy]-pyridin-3-yl}-phenyl)-piperazin-1-yl-methanone], the affinity corresponds to a Ki of 57 nM.
For the compound `CC(Oc1cc(-c2ccc(C(=O)N3CCNCC3)cc2)cnc1N)c1c(Cl)ccc(O)c1Cl` (stereo not drawn) [Example 79, (4-{6-Amino-5-[1-(2,6-dichloro-3-hydroxy-phenyl)-ethoxy]-pyridin-3-yl}-phenyl)-piperazin-1-yl-methanone], the Ki amounted to 71 nM.
On to `COc1ccc(Cl)c(C(C)Oc2cc(-c3ccc(C(=O)N4CCNCC4)cc3)cnc2N)c1Cl` (stereo not drawn) [Example 80, (4-{6-Amino-5-[1-(2,6-dichloro-3-methoxy-phenyl)-ethoxy]-pyridin-3-yl}-phenyl)-piperazin-1-yl-methanone], for which the Ki is 6 nM.
On the same count and under the same terms, the result for `CC(Oc1cc(C(N)=O)cnc1N)c1c(Cl)ccc(F)c1Cl` (stereo not drawn) [Example 81, 6-Amino-5-[1-(2,6-dichloro-3-fluoro-phenyl)-ethoxy]-nicotinamide] reads 1000 nM.
Still for that read-out and setting: in the case of `Cc1ccc(Cl)c(C(C)Oc2cc(-c3ccc(C(=O)N4CCC(N5CCCC5)CC4)cc3)cnc2N)c1F` (stereo not drawn) [Example 82, (4-{6-Amino-5-[1-(6-chloro-2-fluoro-3-methyl-phenyl)-ethoxy]-pyridin-3-yl}-phenyl)-(4-pyrrolidin-1-yl-piperidin-1-yl)-methanone] it was 410 nM; in that of `CC(Oc1cc(-c2ccc(C(=O)N3CCC(N4CCCC4)CC3)cc2)cnc1N)c1cccc(C(=O)O)c1` (stereo not drawn) [Example 84, 3-(1-{2-Amino-5-[4-(4-pyrrolidin-1-yl-piperidine-1-carbonyl)-phenyl]-pyridin-3-yloxy}-ethyl)-benzoic acid], 5480 nM.
Still for that read-out and setting: the result for `Cc1cn(-c2cnc(N)c(OC(C)c3c(Cl)ccc(F)c3Cl)c2)cn1` (stereo not drawn) [Example 85, 3-[1-(2,6-Dichloro-3-fluoro-phenyl)-ethoxy]-5-(4-methyl-imidazol-1-yl)-pyridin-2-ylamine] reads 780 nM; that for `COC(=O)c1cn(-c2cnc(N)c(OC(C)c3c(Cl)ccc(F)c3Cl)c2)cn1` (stereo not drawn) [Example 86, 1-{6-Amino-5-[1-(2,6-dichloro-3-fluoro-phenyl)-ethoxy]-pyridin-3-yl}-imidazole-4-carboxylic acid methyl ester], 1810 nM; that for `CC(Oc1cc(N2CCCC2=O)cnc1N)c1c(Cl)ccc(F)c1Cl` (stereo not drawn) [Example 90, N-{6-Amino-5-[1-(2,6-dichloro-3-fluoro-phenyl)-ethoxy]-pyridin-3-yl}-pyrrolidin-2-one], 910 nM.
Compound `COc1ccc(C(=O)Nc2cnc(N)c(OC(C)c3c(Cl)ccc(F)c3Cl)c2)cc1` (stereo not drawn) [Example 91, N-{6-Amino-5-[1-(2,6-dichloro-3-fluoro-phenyl)-ethoxy]-pyridin-3-yl}4-methoxy-benzamide] had a Ki of 1320 nM.
Turning to `COc1cc(C(=O)Nc2cnc(N)c(OC(C)c3c(Cl)ccc(F)c3Cl)c2)ccn1` (stereo not drawn) [Example 92, N-{6-Amino-5-[1-(2,6-dichloro-3-fluoro-phenyl)-ethoxy]-pyridin-3-yl}-2-methoxy-isonicotinamide], affinity was put at a Ki of 1690 nM. The Ki values of the last two compounds are within 1.5-fold of each other.
`CC(Oc1cc(NC(=O)c2cnccn2)cnc1N)c1c(Cl)ccc(F)c1Cl` (stereo not drawn) [Example 93, Pyrazine-2-carboxylic acid {6-amino-5-[1-(2,6-dichloro-3-fluoro-phenyl)-ethoxy]-pyridin-3-yl}-amide] yielded an inhibition constant Ki of 1470 nM.
Still for that read-out and setting: the result for `CC(Oc1nc(-c2ccccc2NS(C)(=O)=O)cnc1N)c1c(Cl)ccc(F)c1Cl` (stereo not drawn) [Example 94, N-(2-{5-Amino-6-[1-(2,6-dichloro-3-fluoro-phenyl)-ethoxy]-pyrazin-2-yl}-phenyl)-methanesulfonamide] reads 3790 nM; that for `Cc1cc2cccc(-c3cnc(N)c(OC(C)c4c(Cl)ccc(F)c4Cl)n3)c2[nH]1` (stereo not drawn) [Example 95, 3-[1-(2,6-Dichloro-3-fluoro-phenyl)-ethoxy]-5-(2-methyl-1H-indol-7-yl)-pyrazin-2-ylamine], 4200 nM.
Take `CC(Oc1cc(-c2ccc(C(=O)N3CCC(N4CCCC4)CC3)cc2)cnc1N)c1c(Cl)ccc(Cl)c1F` (stereo not drawn) [Example 96, (4-{6-Amino-5-[1-(3,6-dichloro-2-fluoro-phenyl)-ethoxy]-pyridin-3-yl}-phenyl)-(4-pyrrolidin-1-yl-piperidin-1-yl)-methanone]: the Ki amounted to 217 nM. Compared with the last compound, the Ki is about 19-fold lower.
Regarding `CC(Oc1cc(-c2ccc(C(=O)N3C[C@@H](C)N[C@@H](C)C3)cc2)cnc1N)c1c(Cl)ccc(Cl)c1F` (stereo partly drawn) [Example 97, (4-{6-Amino-5-[1-(3,6-dichloro-2-fluoro-phenyl)-ethoxy]-pyridin-3-yl}-phenyl)-(3,5-dimethyl-piperazin-1-yl)-methanone], the Ki is 324 nM. This Ki and that of the compound before are within 1.5-fold of each other.
The same measure, in the same setting: in the case of `CC(Oc1cc(-c2ccc(CC(=O)N3CCN(C)CC3)cc2)cnc1N)c1c(Cl)ccc(F)c1Cl` (stereo not drawn) [Example 98, 2-(4-{6-Amino-5-[1-(2,6-dichloro-3-fluoro-phenyl)-ethoxy]-pyridin-3-yl}-phenyl)-1-(4-methyl-piperazin-1-yl)-ethanone] it was 68 nM; in that of `CC(Oc1cc(-c2ccc(CC(=O)N3CCC(N)C3)cc2)cnc1N)c1c(Cl)ccc(F)c1Cl` (stereo not drawn) [Example 99, 2-(4-{6-Amino-5-[1-(2,6-dichloro-3-fluoro-phenyl)-ethoxy]-pyridin-3-yl}-phenyl)-1-(3-amino-pyrrolidin-1-yl)-ethanone], 40 nM.
Still for that read-out and setting: the result for `CC(Oc1cc(-c2ccc(CC(=O)N3CCNCC3)cc2)cnc1N)c1c(Cl)ccc(F)c1Cl` (stereo not drawn) [Example 100, 2-(4-{6-Amino-5-[1-(2,6-dichloro-3-fluoro-phenyl)-ethoxy]-pyridin-3-yl}-phenyl)-1-piperazin-1-yl-ethanone] reads 37 nM; that for `CC(Oc1cc(-c2ccc(CC(=O)N3CC4C(N)C4C3)cc2)cnc1N)c1c(Cl)ccc(F)c1Cl` (stereo not drawn) [Example 101, 1-(6-Amino-3-aza-bicyclo[3.1.0]hex-3-yl)-2-(4-{6-amino-5-[1-(2,6-dichloro-3-fluoro-phenyl)-ethoxy]-pyridin-3-yl}-phenyl)-ethanone], 39 nM.
Still for that read-out and setting: the result for `CC(Oc1cc(-c2ccc(NC(=O)C3CCNCC3)nc2)cnc1N)c1c(Cl)ccc(F)c1Cl` (stereo not drawn) [Example 102, Piperidine-4-carboxylic acid {6′-amino-5′-[1-(2,6-dichloro-3-fluoro-phenyl)-ethoxy]-[3,3′]bipyridinyl-6-yl}-amide] reads 164 nM; that for `CC(Oc1cc(-c2ccc(F)c(C#N)c2)cnc1N)c1c(Cl)ccc(F)c1Cl` (stereo not drawn) [Example 103, 5-{6-amino-5-[1-(2,6-dichloro-3-fluorophenyl)ethoxy]pyridin-3-yl}-2-fluorobenzonitrile], 340 nM; that for `C[C@@H](Oc1cc(-c2ccc(C(=O)N3CCNCC3)cc2)cnc1N)c1c(Cl)ccc(F)c1Cl` [Example 104, 3-[(1R)-1-(2,6-dichloro-3-fluorophenyl)ethoxy]-5-[4-(piperazin-1-ylcarbonyl)phenyl] pyridin-2-amine], 10 nM.
Take `CC(Oc1cc(-c2ccc(OCCN3CCCC3)cc2)cnc1N)c1c(Cl)ccc(F)c1Cl` (stereo not drawn) [Example 105, 3-[1-(2,6-dichloro-3-fluorophenyl)ethoxy]-5-[4-(2-pyrrolidin-1-ylethoxy)phenyl] pyridin-2-amine]: the Ki turned out to be 44 nM. This Ki is about 4.4-fold higher than that of the compound before.
Still for that read-out and setting: in the case of `COC(=O)c1n[nH]c2cc(-c3cnc(N)c(OC(C)c4c(Cl)ccc(F)c4Cl)c3)ccc12` (stereo not drawn) [Example 106, methyl 6-{6-amino-5-[1-(2,6-dichloro-3-fluorophenyl)ethoxy]pyridin-3-yl}-1H-indazole-3-carboxylate] it was 44 nM; in that of `CC(Oc1cc(-c2cnc3[nH]c(=O)oc3c2)cnc1N)c1c(Cl)ccc(F)c1Cl` (stereo not drawn) [Example 107, 6-{6-amino-5-[1-(2,6-dichloro-3-fluorophenyl)ethoxy]pyridin-3-yl}(1,3]oxazolo[4,5-b]pyridin-2 (3H)-one], 27 nM; in that of `COc1cc(-c2cnc(N)c(OC(C)c3c(Cl)ccc(F)c3Cl)c2)ccc1OCCO` (stereo not drawn) [Example 108, 2-(4-{6-amino-5-[1-(2,6-dichloro-3-fluorophenyl)ethoxy]pyridin-3-yl}-2-methoxyphenoxy)ethanol], 22 nM.
Same read-out and setting: in the case of `Cc1noc(C)c1-c1cnc(N)c(OC(C)c2c(Cl)ccc(F)c2Cl)c1` (stereo not drawn) [Example 109, 3-[1-(2,6-dichloro-3-fluoropheny)ethoxy]-5-(3,5-dimethylisoxazol-4-yl)pyridin-2-amine] it was 860 nM.

Still in this assay, the particulars now being: compound at 1 μM.
On to `CCC(Oc1cc(-c2ccc(C(=O)N3CCC(N4CCCC4)CC3)cc2)cnc1N)c1cc(F)c(F)cc1F` (stereo not drawn) [Example 83, (4-{6-Amino-5-[1-(2,4,5-trifluoro-phenyl)-propoxy]-pyridin-3-yl}-phenyl)-(4-pyrrolidin-1-yl-piperidin-1-yl)-methanone], for which the inhibition at 1 µM was determined as 11%.
On the same count and under the same terms, the result for `CC(Oc1cc(-c2ccc(C(=O)N3CCC(N4CCCC4)CC3)cc2)cnc1N)c1cccc(C(=O)NCCc2cccc(O)c2)c1` (stereo not drawn) [Example 87, 3-(1-{2-Amino-5-[4-(4-pyrrolidin-1-yl-piperidine-1-carbonyl)-phenyl]-pyridin-3-yloxy}-ethyl)-N-[2-(3-hydroxy-phenyl)-ethyl]-benzamide] reads 20%.

(Values after patent US20060178374A1, “Aminoheteroaryl compounds as protein kinase inhibitors” (AGOURON PHARMACEUTICALS, INC., priority 2004, published 2006).)
